According to patent US6386145B1, “Process for curing diseases in cultured fish” (B. L. Mitchell, Inc., priority 2000, dated 2002):

Test system: catfish diagnosed as having PGD (proliferative gill disease)
Experiment: treatment of rearing pond containing catfish diseased with PGD
Format: in vivo
Description: In order to effect these concentrations in the tank or pond where the diseased fish are contained the concentrated solution of Chloramine-T is prepared for using the correct amount of Chloramine-T for the volume of water which is contained in the tank or pond where the diseased fish reside. This concentrated solution is then spread evenly over the surface of the pond or tank via the use of a chemical boat. In order to aid mixing aeration equipment is run one hour before the application and 35 hours after the application.
1. A pond of 17 acres, 4.5 feet deep holding approximately 2 million catfish contained approximately 76.5 acre feet of water. […] […] Upon examination the whole fish population was diagnosed as having PGD in various stages with some of the fish dying. 411.57 pounds of Chloramine-T was dissolved in 50 gallons of water contained in a tank on a chemical boat, as the boat moved over the pond the Chloramine-T was applied evenly over the surface of the pond.

[1] = Example 1, catfish 2 to 4 inches, 2 ppm, after 72 hours
[2] = Example 2, catfish 6 to 9 inches, 2 ppm, after 72 hours
[3] = Example 3, catfish 1 to 1.25 pounds, 2 ppm, after 72 hours
[4] = Example 4, catfish 8 to 11 inches, 2 ppm, after 72 hours
[5] = Example 5, catfish 8 to 11 inches, 1.5 ppm, after 72 hours

## Cc1ccc(S(=O)(=O)NCl)cc1.[Na] [Chloramine-T, N-Sodium, N-chloro-para-toluenesulfonamide]
Example 1, catfish 2 to 4 inches, approx. 2 million, 2 ppm in pond, 24 hours after application
  death rate of the fish: substantially decreased
Example 1, catfish 2 to 4 inches, 2 ppm, after 48 hours
  death rate of the fish: further decreased
[1]
  PGD status upon examination of the fish population: in remission
  death of fish: essentially stopped
Example 1, catfish 2 to 4 inches, 2 ppm, after 96 hours
  PGD status upon examination of the fish population: free of PGD
Example 2, catfish 6 to 9 inches, approx. 1 million, 2 ppm in pond, 24 hours after application
  death rate of the fish: substantially decreased
Example 2, catfish 6 to 9 inches, 2 ppm, after 48 hours
  death rate of the fish: further decreased
[2]
  PGD status upon examination of the fish population: in remission
  death of fish: essentially stopped
Example 2, catfish 6 to 9 inches, 2 ppm, after 96 hours
  PGD status upon examination of the fish population: free of PGD
Example 3, catfish 1 to 1.25 pounds, approx. 125,000, 2 ppm in pond, 24 hours after application
  death rate of the fish: substantially decreased
Example 3, catfish 1 to 1.25 pounds, 2 ppm, after 48 hours
  death rate of the fish: further decreased
[3]
  PGD status upon examination of the fish population: in remission
  death of fish: essentially stopped
Example 3, catfish 1 to 1.25 pounds, 2 ppm, after 96 hours
  PGD status upon examination of the fish population: free of PGD
Example 4, catfish 8 to 11 inches, approx. 700,000, 2 ppm in pond, 24 hours after application
  death rate of the fish: substantially decreased
Example 4, catfish 8 to 11 inches, 2 ppm, after 48 hours
  death rate of the fish: further decreased
[4]
  PGD status upon examination of the fish population: in remission
  death of fish: essentially stopped
Example 4, catfish 8 to 11 inches, 2 ppm, after 96 hours
  PGD status upon examination of the fish population: free of PGD
Example 5, catfish 8 to 11 inches, approx. 700,000, 1.5 ppm in pond, 24 hours after application
  death rate of the fish: no decrease
Example 5, catfish 8 to 11 inches, 1.5 ppm, after 48 hours
  death rate of the fish: not decreased
[5]
  PGD status upon examination of the fish population: continued unabated
  death of fish: continued
Example 5, catfish 8 to 11 inches, 1.5 ppm, after 96 hours
  PGD status upon examination of the fish population: continued to die and be afflicted with PGD
Example 6, catfish 8 to 11 inches, approx. 450,000, 387 pounds in 48 acre feet, printed 1.5 ppm, 24 hours after application
  survival of the diseased fish: all of the fish were dead
Concentrations of less than 2 ppm
  control of PGD in diseased catfish (summary of Examples 1 through 6): ineffective
Concentrations of more than 3 ppm
  toxicity to diseased catfish (summary of Examples 1 through 6): kill the diseased catfish
Use in accordance with the process of the invention (2 to 3 ppm)
  control of PGD in diseased catfish (summary of Examples 1 through 6): eliminates PGD
